Experimental data taken from publication PMC3541179, “Structural Insights into the Dual Strategy of Recognition by Peptidoglycan Recognition Protein, PGRP-S: Structure of the Ternary Complex of PGRP-S with Lipopolysaccharide and Stearic Acid” (PLoS ONE, 2013).

Target: T1, CPGRP-S (camel short peptidoglycan recognition protein, PGRP-S) (Camelus dromedarius, UniProt Q9GK12)
T1 construct: gene PGLYRP1; native, purified from camel milk; full mature chain, residues 1-171, about 19-20 kDa; A-B and C-D contacts forming a linear polymer, 4 molecules in the asymmetric unit
Test: X-ray crystallography (soaked crystals, […] A); SPR on immobilized protein also shows binding
Conditions: ternary complex with LPS at Site-1 (C-D contact); SA at Site-2 (A-B contact); crystals soaked in 70% reservoir solution and 30% ethanol
From the text: (camel short peptidoglycan recognition protein, PGRP-S) | SA is placed in the cleft at the A-B contact

T1 sequence (Q9GK12 23-193): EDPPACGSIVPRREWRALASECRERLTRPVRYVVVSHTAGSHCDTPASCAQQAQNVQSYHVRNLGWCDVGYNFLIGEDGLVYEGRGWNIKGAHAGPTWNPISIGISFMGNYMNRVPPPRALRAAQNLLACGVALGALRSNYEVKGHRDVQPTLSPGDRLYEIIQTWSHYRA

CCCCCCCCCCCCCCCCCC(=O)O [SA, stearic acid]
X-ray crystallography (soaked crystals, 2.8 A); SPR on immobilized protein also: SA is placed in the cleft at the A–B contact
